According to ChEMBL document CHEMBL1148080, “Identification of an activator of the retinoid X receptor” (J Nat Prod, 1994):
Calls of active or inactive are those of the source. No cut-off for these calls is given here.

Target: T1, Retinoic acid receptor alpha (Homo sapiens) (UniProt P10276)
T1 sequence (whole entry): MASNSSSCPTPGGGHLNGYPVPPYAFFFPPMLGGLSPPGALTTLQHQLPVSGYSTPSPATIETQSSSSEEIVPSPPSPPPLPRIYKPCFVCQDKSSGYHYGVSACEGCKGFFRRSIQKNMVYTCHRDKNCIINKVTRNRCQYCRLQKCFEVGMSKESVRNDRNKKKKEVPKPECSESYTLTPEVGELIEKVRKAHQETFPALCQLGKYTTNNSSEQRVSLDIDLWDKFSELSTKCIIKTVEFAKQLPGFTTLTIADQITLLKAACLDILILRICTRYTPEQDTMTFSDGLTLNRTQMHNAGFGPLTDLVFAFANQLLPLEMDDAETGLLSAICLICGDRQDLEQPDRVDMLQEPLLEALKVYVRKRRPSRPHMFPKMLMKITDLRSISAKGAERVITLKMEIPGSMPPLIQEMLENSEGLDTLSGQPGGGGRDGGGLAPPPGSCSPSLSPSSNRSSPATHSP
Experiment: Transactivation of RARalpha expressed in mammalian cells assessed as effect on palindromic thyroid hormone response element-driven transcriptional activation by luciferase reporter gene assay
Format: cell-based

Activity: Active
SMILES: CC1=C(/C=C/C(C)=C\C=C\C(C)=C\C(=O)O[C@@H]2O[C@H](CO)[C@@H](O)[C@H](O)[C@H]2O)C(C)(C)CCC1
